The values below come from US20250041278A1, “TLR8 AGONIST FOR MODULATING IMMUNE RESPONSE” (The Children's Medical Center Corporation, priority 2021, published 2025).

This experiment has as its system human monocytic THP-1 cell line. Put plainly: High throughput screen in THP-1 cells (NF-kB/IRF-inducing and/or leukocyte adherence-inducing activity). The experiment is classed as cell-based. From the text:
FIGS. 1A-1D. Discovery of PVP-179 in a human PBMC high-throughput screen. FIG. 1A: A graphical overview depicting screen approach. From a high-throughput screen previously conducted, 310 molecules were identified to be activators of either THP-1 cells (monocyte cell line) or primary human adult peripheral blood mononuclear cells (PBMCs). These 310 molecules were assembled into a stimulation plate and then applied to the PBMCs of 4 elderly donors (cultured with 10% autologous plasma). […] Z scores were averaged across all four elderly donors. The Z score and chemical structure for PVP-179 are indicated. FIG. 1C: Human adult or elderly PBMCs (cultured with 10% autologous plasma) were stimulated with PVP-179 in a two-point concentration titration manner. After 18 hours of incubation, supernatant was processed for ELISA-based measurement of TNF production. N=4 donors. FIG. 1D: As in FIG. 1C, the supernatants were collected, and 14 cytokines were measured by multiplex assay. […] N=4 donors each.
In a previous high throughput screen (HTS), a number of hit molecules were identified as potentially activating human leukocytes. […] A separate pilot screen of 9,000 of the molecules for TNF-inducing activity in adult human peripheral blood mononuclear cells (PBMCs) subsequently identified 133 molecules. […]

On to `CCCCn1c(/N=C/c2nc3ccccc3n2C)nc2ccccc21` [PVP-179], for which the “hit call in original THP-1 screen” value was “positive hit”.
